Measured values reported in patent US9023853B2, “Janus kinase 2 (JAK2) inhibitor for the treatment of lupus” (Cephalon, Inc., priority 2010, dated 2015).

How the values were obtained:
Format in all cases: in vivo, mouse
plasma cells [1] = test: Spleen plasma cells by flow cytometry in MRL/lpr mice; details: 100 mg/kg, p<0.01
Protocol: Antibodies used for flow cytometry consisted of anti-mouse CD138-APC (eBioscience, San Diego, Calif.), anti-mouse CD19-FITC (eBioscience, San Diego, Calif.), anti-mouse CD38-PE (eBioscience, San Diego, Calif.) and anti-mouse CD45R/B220-Cyc (eBioscience, San Diego, Calif.), Rat IgG1-APC isotype control (eBioscience, San Diego, Calif.), Rat IgG2a-PE isotype control (eBioscience, San Diego, Calif.). All samples were analyzed using an Accuri C6 Flow Cytometer. Complete media was used for all experiments involving the ex vivo culture of splenocytes for all Elispot experiments. Complete media consisted of RPMI1640 (Cellgro, Manassas, Va.), plus 1% Pen-Strep (Cellgro, Manassas, Va.), 1% L-Gln (Cellgro, Manassas, Va.), 1% NEAA (Cellgro, Manassas, Va.), β-ME (Cellgro, Manassas, Va.), plus 10% FBS (Cellgro, Manassas, Va.).
Washed, RBC-lysed splenocytes were stained for plasma cell markers as previously used in published reports (Neubert, Meister et al. 2008). As used herein the term “plasma cell” will refer to the following immunophenotype definition: Plasma cells were defined as live CD19-negative, CD45R/B220-negative, CD138-positive, CD38-positive events for the MRL/lpr model. A total of 200,000-500,000 events were collected per tube/sample. Insufficient sample limited plasma cell determination in bone marrow. […]

IL-12 = test: Serum IL-12 (Luminex) in NZM mice
Protocol: (§1) For the processing of serum samples for cytokine analysis, frozen plasma at −80° C. was thawed on ice, vortexed, and centrifuged for 10 minutes to remove debris and aggregates. A total of 25-50 μL of serum was used for Luminex® assays following the manufacturer's instructions. Ten different mouse cytokines were measured using the mouse cytokine 10-plex bead kit (Invitrogen, Carlsbad, Calif., no. LMC0001). Briefly, filter plates (Millipore, Billerica, Mass., no. MAIPSWU10), were pre-wet with 200 μL of wash solution (kit component) and 25 μL of beads were added per well. […]
(§2) Age mated, female, NZM or NZW/LacJ, mice were matured for the study of lupus nephritis for a total of 7 months or 210 days at which time urine was collected for proteinuria detection. Mice with 0.5-1.0 mg/ml of urine protein as determined by an optical density-based total protein precipitation assay and cross-checked for 30-300 mg/dl of protein as determined by a stick assay were considered proteinuria positive and selected for study entry. […] End-stage lupus nephritis was evaluated by histopathology and scored by a board certified pathologist for the assessment of total renal damage in diseased animals using the scoring method described by Smith et al (Smith, Dong et al. 2007). […]

TNFα = test: Serum TNFα in NZM mice
Protocol: as §1, §2

plasma cells [2] = test: BrdU short-lived / long-lived plasma cells in spleen and bone marrow of NZM mice; details: 15 week old NZM mice, two weeks
Protocol: Twenty-four hours before the end of the study each mouse was injected i.p. with 2 mg of thymidine analog, bromodeoxyuridine (BrdU). BrdU (Cat#550891) and an anti-BrdU-FITC staining kit (Cat#559619) were obtained from BD Biosciences (Franklin Lakes, N.J.). Twenty-four hours after BrdU injection spleen and bone marrow were individually processed to isolate leukocytes for flow staining. Cells were surface stained with anti-CD19-Cyc, anti-CD38-PE and anti-CD138-APC (all obtained from eBioscience in San Diego, Calif.) as well as anti-BrdU-FITC (from the BrdU kit). Analysis included gating on live SSC/FSC populations, CD19-negative, CD38-positive and gating on CD138-positive, BrdU-negative (non-cycling, long-lived plasma cells, region R2) or BrdU-positive (cycling, short-lived plasma cells, region R1) as shown in FIG. 42. All samples were analyzed using an Accuri C6 Flow Cytometer. Complete media (R10) was used for all experiments involving the ex vivo culture of splenocytes for all Elispot experiments. […] The Figures depict spleen short-lived plasma cells (FIG. 38), bone marrow isolated short-lived plasma cells (FIG. 39), spleen long-lived plasma cells (FIG. 40), and bone marrow isolated long-lived plasma cells (FIG. 41). Also depicted are representative dot plots providing gating examples and short-lived plasma cells, R1, and long-lived plasma cells, R2, gates (FIG. 42). Graphs show mean±SEM, statistical test included two-tailed, Mann-Whitney t-test, *p<0.05 was considered significant. All events shown were originally size gated on live cells, graphs show CD19-negative, CD38/CD138-double positive populations that had either incorporated BrdU (cycling, thus short-lived plasma cells, see region R1) or not incorporated BrdU (non-cycling, thus long-lived plasma cells, see region R2).

## CN1CCN(c2cccc(Nc3nc4c(-c5ccc(S(C)(=O)=O)cc5)cccn4n3)c2)CC1 [COMPOUND A, [8-(4-methanesulfonyl-phenyl)-[1,2,4]triazolo[1,5-a]pyridin-2-yl]-[3-(4-methyl-piperazin-1-yl)-phenyl]-amine]
Plasma cells [1]
  spleen plasma cells decrease vs vehicle: 65.5%
IL-12; 55 mg/kg
  serum IL-12 decrease compared to vehicle: 99.4%
IL-12; 100 mg/kg
  serum IL-12 decrease compared to vehicle: 99.9%
TNFα; 55 mg/kg
  serum TNFα decrease compared to vehicle: 92.3%
TNFα; 100 mg/kg
  serum TNFα decrease compared to vehicle: 88.3%
Plasma cells [2]; 100 mg/kg orally b.i.d., FIG. 39
  short lived plasma cells in the bone marrow: impacted
Plasma cells [2]; 100 mg/kg orally b.i.d., FIG. 41
  long lived plasma cells in the bone marrow: impacted
Plasma cells [2]; all three doses (100, 55, 30 mg/kg) orally b.i.d., FIG. 40
  long lived plasma cells in the spleen: impacted
